{"source": "patent US6458760B1", "about": "“Method for treating tissue damaged from ischemia” (Henry Ford Health System, priority 1998, dated 2002)", "key": {"[1]": {"system": "Calpain", "experiment": "Calpain inactivation rate, fluorimetric progress curves", "assay_type": "biochemical", "details": "second order inactivation rate constant corrected for substrate; substrate Suc-Leu-Tyr-AMC; pH 7.5, 37° C.", "procedure": "(“Tian, et al.”) the contents of which are incorporated by reference. More specifically, the value of kobs is given by the slope of a plot of ln [P]∞−[p]t versus t (time). The apparent second-order rate contact for inactivation, k2app was calculated as kobs/[I]. The inactivation-rates (kobs) in the presence of substrate and for different inhibitor concentrations for calpain, cathepsin B and cathepsin L are determined according to the method of Tian, et al. However, k2app is corrected for the presence of substrate (s) to give the second order rate constant k^12app, calculated as k^12app=k2app (1+[s]/Km).\nCalpain was assayed fluorimetrically in 1 ml of 50 mM Tris/acetate buffer, pH 7.5, containing 5 mM CaCl2, 2.5 mM DTT(dithiothreitol), 0.1% Triton X-100 at 37° C., using 2.5×10^−4 M Suc-Leu-Tyr-aminomethylcoumarin (AMC) (Novabiochem, Switzerland) as substrate and 50nM (final concentration) of enzyme. The appearance of the 7-amino-4 methylcoumarin product was recorded continuously with a Perkin Elmer 650-10S spectrofluorimeter, a SPEX Fluorolog 1680, or SLM 8000C fluorescence spectrometer with excitation at 370 nm and emission at 460 nm.\nTypically, 5 μL of the substrate solution (50 mM stock in DMSO) was added to 1 mL of buffer. Varying concentrations of the inhibitor solution (10 μL of a DMSO […] solution) were added, followed by 10 μL of calpain in the assay buffer. After allowing the reaction mixture to incubate for 2-5 min, during which time a steady baseline level of fluorescence was measured, calcium was added in a 10-μL volume to initiate hydrolysis of the fluorogenic substrate, and the resulting increase in fluorescence was monitored continuously. When inhibitors were tested at very low concentrations, the enzyme concentration was reduced to maintain a minimum of a 10-fold excess of inhibitor over enzyme."}, "[2]": {"experiment": "Loss of body weight after MCA occlusion (Example 8)", "assay_type": "in vivo, rat", "procedure": "The animal is able to move about and take water as needed. However, animals with severe stroke that are not able to maintain intake of water are supplemented with daily subcutaneous Lactated Ringers solution. Daily body weights are followed to assess nutritional status.\nCP-1 dissolved in 1% DMSO and isotonic saline was given intravenously to Wistar rats (15 μl/min) at a concentration of 50 μM for four hours beginning at the end of three hours of MCA occlusion, in accordance with the protocol described hereinabove. Control animals underwent a similar protocol, but they had injected therein a 1% DMSO/Saline as the vehicle for four hours beginning at the end of a three hour MCA occlusion. All animals which survived 7 days were sacrificed and the infarct volume was measured 7 days after the MCA occlusion.\nThe % loss of body weight from CP-1 treated animals and the control group on Day 1 and Day 7 are tabulated hereinbelow."}, "[3]": {"system": "Wistar rats with MCA occlusion", "experiment": "Stroke model, 2 h MCA occlusion, i.v. infusion after reperfusion, infarct volume at 7 days", "assay_type": "in vivo, rat", "details": "for % Hemisphere Infarct Volume (% ± SEM): 2 h MCA occlusion, day 7, control 37 ± 2.6", "procedure": "Male Wistar rat weighing between 270-290 gm are fasted the night prior to surgery. Each rat was then anesthetized with 3.5% halothane, and spontaneously respired with 0.5% halothane in a 2:1 N2O:O2 mixture using a face mask. A normal range of blood gases and pH is maintained during ischemia and reperfusion with the face mask inhalation, as verified by samples taken from a femoral artery PE-50 catheter. Body temperature is maintained constant at 37° C. with a recirculating heating pad and K module with an intrarectal type T thermocouple. The PE-50 catheters are inserted into the femoral artery and vein following induction of anesthesia to obtain the blood gas, glucose and hemoglobin concentrations and to monitor blood pressure.\nThe right common carotid artery, external carotid artery and internal carotid artery are isolated using microsurgical techniques. A clamp is applied to the common carotid artery and a 4-0 nylon suture with a rounded tip is inserted into the external carotid artery through a small puncture. The clamp on the common carotid artery is removed. The suture is passed distally into the internal carotid artery until it blocks the middle cerebral artery. Two hours after the MCA occlusion, the animal is again anesthetized, and the nylon suture is removed from the internal carotid artery.\nInfusion of the inhibitor or vehicle is done by intravenous infusion via the femoral vein.\nSyringe pumps were filled under sterile conditions with either isotonic saline/1% DMSO solution as the control or with the concentration of CP-1 or CP-2 indicated in the examples, hereinbelow. The pumps delivered the solution at a rate of 15 μl/min for up to 4 hours.\nAfter anesthesia had been induced in the rat, a catheter was inserted into the femoral vein and tunneled subcutaneously in the posterior neck region. Body temperature was maintained at a constant temperature of 37° C. during surgical procedures. The animals underwent 2 hours of MCA occlusion, and then reperfusion when the suture was withdrawn, and immediately thereafter, the drug was infused for four hours. The animals were killed after a 7-day reperfusion, and the brains were formalin fixed and sliced 6-μm thick into seven coronal sections A-G, and mounted on coated slides. After staining with hematoxylin and eosin, the stroke volume was measured using an image analysis program. The stroke area and the contralateral hemispheric area were calculated by tracing the areas on the computer screen, and the volumes were determined by multiplying the appropriate area by the section interval thickness. The stroke volume is expressed as the percentage of lesion size to the volume of contralateral hemisphere. Statistical analysis was performed using the independent t-test.\nCP-1 dissolved in 1% DMSO and isotonic saline was given intravenously to Wistar rats (15 μl/min) at concentrations of 2 μM, 10μM, 50μM and 25μM for 4 hours immediately after reperfusion following two hours of MCA occlusion, in accordance with the procedure described hereinabove. Control animals underwent a similar protocol but they had injected therein 1% DMSO/Saline as the vehicle within four hours. All animals which survived 7 days were sacrificed and the stroke volume calculated. The results are tabulated hereinbelow:\nThe protocol described hereinabove was repeated with CP-2 used in lieu of CP-1, at doses of 10, 50, 250 and 500 μM."}, "[4]": {"target": "T1, cathepsin B (Rattus norvegicus, UniProt P00787)", "T1 construct": "the brains were extracted and separated with right and left, cortical and subcortical regions and immediately frozen in liquid nitrogen; from tissue; host or cells: rat brain (cortical and subcortical regions), homogenate", "T1 sequence (P00787 80-333)": "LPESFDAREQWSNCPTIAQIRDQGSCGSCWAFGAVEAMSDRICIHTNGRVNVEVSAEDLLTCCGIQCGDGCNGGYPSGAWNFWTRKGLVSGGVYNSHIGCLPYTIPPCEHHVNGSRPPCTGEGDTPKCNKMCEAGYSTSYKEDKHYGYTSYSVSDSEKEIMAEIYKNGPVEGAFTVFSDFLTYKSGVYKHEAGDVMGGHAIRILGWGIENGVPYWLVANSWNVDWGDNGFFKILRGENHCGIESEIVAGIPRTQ", "experiment": "Cathepsin B activity in brain homogenates after 2 h MCA occlusion and infusion", "assay_type": "in vivo", "procedure": "The protocol of Example 6 was followed except as follows: the rats under went two hours of MCA occlusion, they were administered either CP-1 (50 μM) or 1% DMSO/saline for four hours after reperfusion and the rats were sacrificed after 48 hours of survival.\nAt that time, the brains were extracted and separated with right and left, cortical and subcortical regions and immediately frozen in liquid nitrogen. The samples were homogenized with buffer, titrated, and then reacted with the substrate CBZ-Arg-Arg-AMC with the resultant fluorescence measured with a fluorophotometer. Activity is expressed in units of enzyme activity per mg of soluble brain protein (mean +SEM)."}}, "note": "Residues, ends and D or L forms follow the SMILES beside them. *: point of attachment. Cbz = O=C(OCc1ccccc1)*; CHN2 = [N-]=[N+]=C*; Bn = c1ccc(C*)cc1", "data": [{"smiles": "[N-]=[N+]=CC(=O)C(COCc1ccccc1)NC(=O)C(Cc1ccccc1)NC(=O)OCc1ccccc1", "note": "(stereo not drawn) [CP-1, benzyloxycarbonyl-Phe-Ser(OBz)-CHN2] (Cbz-Phe-Ser(Bn)-CHN2; configuration not given here)", "values": [{"measurement": "Calpain k′2app", "setting": "[1]", "value": "<10", "unit": "M^−1S^−1"}, {"measurement": "% loss of body weight Day 1", "setting": "[2]; 50 μM i.v. 4 h, Example 8, control 19 ± 2.0", "value": "16 ± 1.4", "unit": "%"}, {"measurement": "% loss of body weight Day 7", "setting": "[2]; 50 μM i.v. 4 h, Example 8, control 32 ± 3.0", "value": "28 ± 3.4", "unit": "%"}, {"measurement": "loss of mean body weight, treated versus control", "setting": "[2]; Day 1 and Day 7", "value": "no significant difference"}, {"measurement": "% Hemisphere Infarct Volume (% ± SEM)", "setting": "[3]; 2 μM i.v. 15 μl/min for 4 h after reperfusion", "value": "39 ± 2.1, p > 0.1%"}, {"measurement": "% Hemisphere Infarct Volume (% ± SEM)", "setting": "[3]; 10 μM i.v. 15 μl/min for 4 h after reperfusion", "value": "22 ± 4.7, p = 0.01%"}, {"measurement": "% Hemisphere Infarct Volume (% ± SEM)", "setting": "[3]; 50 μM i.v. 15 μl/min for 4 h after reperfusion", "value": "20 ± 4.1, p = 0.003%"}, {"measurement": "% Hemisphere Infarct Volume (% ± SEM)", "setting": "[3]; 250 μM i.v. 15 μl/min for 4 h after reperfusion", "value": "23 ± 5.2, p = 0.02%"}, {"measurement": "area of damage of the cerebral hemisphere", "setting": "[3]; all doses except 2 μM, reduced from 37% in control", "value": "about 20%"}, {"measurement": "Cathepsin B activity, Left Cortex", "setting": "[4]; 50 μM i.v. 4 h after 2 h MCA occlusion, 48 h survival, mean ± SEM, control 0.142 ± 0.02", "value": "0.106 ± .01 units of enzyme activity per mg of soluble brain protein"}, {"measurement": "Cathepsin B activity, Left Subcortex", "setting": "[4]; 50 μM i.v. 4 h after 2 h MCA occlusion, 48 h survival, mean ± SEM, control 0.147 ± 0.02, p < 0.05", "value": "0.084 ± .01 units of enzyme activity per mg of soluble brain protein"}, {"measurement": "Cathepsin B activity, Right Cortex", "setting": "[4]; 50 μM i.v. 4 h after 2 h MCA occlusion, 48 h survival, mean ± SEM, control 0.181 ± 0.04", "value": "0.113 ± 0.01 units of enzyme activity per mg of soluble brain protein"}, {"measurement": "Cathepsin B activity, Right Subcortex", "setting": "[4]; 50 μM i.v. 4 h after 2 h MCA occlusion, 48 h survival, mean ± SEM, control 0.198 ± 0.03, p < 0.05", "value": "0.113 ± 0.02 units of enzyme activity per mg of soluble brain protein"}, {"measurement": "cathepsin B activity in the subcortical regions versus vehicle", "setting": "[4]; 50 μM infusion after 2 h MCA occlusion", "value": "significantly lower"}]}]}
